Activity calls are given as the source filed them.
Key:
BJ [1] = test: BJ-TERT fibroblast viability loss – cell-based, RAS-independent, luminescence, dose response (AID 1933); format: functional; details: Homo sapiens
BJ [2] = test: cells; format: functional, cell-based; details: Homo sapiens
Large T antigen = Large T antigen (Simian virus 40, UniProt P03070); format: functional, Betapolyomavirus macacae;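 note: Confirmatory-stage PubChem screen for compounds that inhibit SV40 T antigen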
[3] = target: Luciferin 4-monooxygenase (Photinus pyralis, UniProt P08659); test: inhibition of purified Photinus pyralis luciferase – biochemical, luminescence, dose response (AID 1891)
[4] = Luminescence Cell-Based Dose Confirmation HTS to Identify Inhibitors of Platelet Dense Granule Release. [Related pubchem assays: 1663 (Primary HTS), 1678 (Summary of Project)]; format: functional
BJ [5] = test: BJ-TERT-LT-ST fibroblast viability loss – cell-based, RAS-independent, luminescence, dose response (AID 1935); format: functional; details: Homo sapiens;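 note: BJ fibroblasts immortalized with TERT plus LT and ST oncogenes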
[6] = DRD fibroblast viability loss – cell-based, non-viral oncogenic, luminescence, dose response (AID 1934); format: functional; details: Homo sapiens
CHO = CHO cell viability loss, potency – luminescence, cytotoxicity control for TLR9-MyD88 binding inhibitor project, dose response (AID 588339); format: functional, cell-based, hamster; details: Cricetulus griseus;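 note: CHO cells stably coexpressing TLR9 and MyD88 fusions from primary screen; compound exposure lasted 48 hours before viability readout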
[7] = target: T1, Replicative DNA helicase DnaB (Mycobacterium tuberculosis, UniProt P9WMR3); test: DnaB intein splicing inhibitors, dose response, biochemical, cell-free fluorescence (AID 449749); format: functional
T1 sequence (P9WMR3 whole entry): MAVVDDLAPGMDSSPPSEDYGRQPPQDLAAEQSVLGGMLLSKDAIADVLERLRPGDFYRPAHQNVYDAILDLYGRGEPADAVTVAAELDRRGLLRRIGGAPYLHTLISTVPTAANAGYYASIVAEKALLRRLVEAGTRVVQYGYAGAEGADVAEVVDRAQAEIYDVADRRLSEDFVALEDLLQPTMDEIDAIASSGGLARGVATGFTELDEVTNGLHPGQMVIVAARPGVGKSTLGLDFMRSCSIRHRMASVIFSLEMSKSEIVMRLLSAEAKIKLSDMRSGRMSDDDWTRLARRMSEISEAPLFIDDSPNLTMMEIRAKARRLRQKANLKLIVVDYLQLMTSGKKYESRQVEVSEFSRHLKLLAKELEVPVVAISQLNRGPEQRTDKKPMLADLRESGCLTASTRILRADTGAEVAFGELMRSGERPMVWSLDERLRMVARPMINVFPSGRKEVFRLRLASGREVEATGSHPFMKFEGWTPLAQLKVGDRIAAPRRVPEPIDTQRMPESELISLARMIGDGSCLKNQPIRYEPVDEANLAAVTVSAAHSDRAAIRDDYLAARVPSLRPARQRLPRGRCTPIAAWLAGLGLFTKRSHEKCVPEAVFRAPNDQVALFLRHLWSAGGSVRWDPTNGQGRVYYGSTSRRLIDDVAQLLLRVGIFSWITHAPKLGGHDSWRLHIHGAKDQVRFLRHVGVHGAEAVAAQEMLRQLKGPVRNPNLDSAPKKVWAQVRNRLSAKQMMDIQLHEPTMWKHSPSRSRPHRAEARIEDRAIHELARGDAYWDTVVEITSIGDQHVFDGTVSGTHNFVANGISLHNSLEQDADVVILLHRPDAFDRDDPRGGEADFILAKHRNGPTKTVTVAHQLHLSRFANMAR

Vero = test: viability of Vero cells under compound – cytotoxicity control for flavivirus capping enzyme inhibitors (AID 588742); format: functional; details: Chlorocebus sabaeus
BJ [8] = test: growth inhibition of engineered Ras-driven BJ cells – cell-based, alamar blue fluorescence, cherrypicked samples, dose response (AID 2631); format: functional; details: Homo sapiens;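 note: confirmatory dose-response assay in RAS-dependent BJ fibroblasts engineered with TERT, LT and ST, with cytotoxicity read by fluorescence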
Protein RecA = target: T2, Protein RecA (Mycobacterium tuberculosis, UniProt P9WHJ3); test: Fluorescence Cell-Free Homogeneous Dose Retest to Identify Inhibitors of RecA-Intein Splicing Activity. [Related pubchem assays (depositor defined):AID2097, AID2223, AID489010, AID492950]; format: functional
T2 sequence (P9WHJ3 whole entry): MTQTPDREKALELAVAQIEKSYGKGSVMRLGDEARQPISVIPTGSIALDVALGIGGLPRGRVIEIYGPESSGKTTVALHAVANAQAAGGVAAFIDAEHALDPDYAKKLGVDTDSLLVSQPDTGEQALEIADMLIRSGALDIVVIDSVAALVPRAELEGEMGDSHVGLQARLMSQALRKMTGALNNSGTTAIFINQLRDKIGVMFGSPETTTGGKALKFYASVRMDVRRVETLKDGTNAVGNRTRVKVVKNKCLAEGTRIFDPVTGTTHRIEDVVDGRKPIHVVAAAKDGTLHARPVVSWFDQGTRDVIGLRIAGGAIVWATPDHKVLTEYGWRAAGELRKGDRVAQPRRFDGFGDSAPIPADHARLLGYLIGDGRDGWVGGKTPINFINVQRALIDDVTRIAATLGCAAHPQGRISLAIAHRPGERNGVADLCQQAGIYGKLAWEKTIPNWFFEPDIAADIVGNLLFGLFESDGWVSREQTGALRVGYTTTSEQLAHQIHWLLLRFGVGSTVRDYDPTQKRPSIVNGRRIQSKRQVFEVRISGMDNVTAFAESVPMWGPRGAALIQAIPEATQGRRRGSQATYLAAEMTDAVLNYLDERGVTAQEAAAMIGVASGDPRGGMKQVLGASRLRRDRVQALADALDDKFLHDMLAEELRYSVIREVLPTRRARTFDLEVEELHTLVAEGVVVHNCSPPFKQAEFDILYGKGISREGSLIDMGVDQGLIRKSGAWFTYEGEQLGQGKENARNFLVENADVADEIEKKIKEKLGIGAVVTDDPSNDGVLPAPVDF

Beta Lactamase [9] = target: T3, Beta Lactamase (Pseudomonas aeruginosa, UniProt Q932Y6); test: BLA reporter interference, concentration series – BLA reporter cells, FRET fluorescence, artefact control for TLR9-MyD88 binding inhibitor project, dose response (AID 588341); format: cell-based;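 note: cell based assay in CHO-K1 cells stably expressing beta-lactamase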
INS1 = test: INS-1E survival protection against cytokine death – cell-based, luminescence, retest, dose response (AID 449756); format: functional; details: Rattus norvegicus;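 note: cell death triggered by IL-1 beta plus TNF-alpha plus IFN-gamma mixture; protective hits raise ATP signal compared with cytokine alone wells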
Genome polyprotein = Genome polyprotein (dengue virus type 2, UniProt P29990); test: flavivirus cap methylation enzyme inhibition – biochemical, confirmation dose response, primary screen (AID 588689); format: functional
[10] = Fluorescence-based cell-based high throughput dose response assay for inhibitors of the interaction of nucleotide-binding oligomerization domain containing 2 (NOD2) and the receptor-interacting serine-threonine kinase 2 (RIPK2).; format: functional; details: Homo sapiens
Beta Lactamase [11] = target: T3, Beta Lactamase; test: BLA reporter interference, concentration series – BLA reporter cells, FRET fluorescence, artefact control for NOD2-RIPK2 interaction inhibitor project, dose response (AID 651552); format: functional, cell-based
Fatty acid synthase [12] = target: T4, Fatty acid synthase (Homo sapiens, UniProt P49327); test: inhibition of human FAS-TE enzyme activity – biochemical, endpoint fluorescence intensity, uHTS hits, dose response (AID 624327); format: functional;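 note: fluorescence from hydrolysis of an O-methyl fluorescein acyl ester substrate by the enzyme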
Fatty acid synthase [13] = target: T4, Fatty acid synthase; test: inhibition of human FAS-TE enzyme activity – biochemical, kinetic fluorescence intensity, dose response (AID 624326); format: functional;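 note: rate of fluorescence rise from hydrolysis of a fluorogenic O-methyl fluorescein ester substrate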
[14] = viability of PTEN-deleted HCT116 cells – cell-based, HCT116 PTEN knockout, dose response (AID 1047); format: functional;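 note: HCT116 colon tumor cells with PTEN knocked out; cells exposed to compound for 60 hours before readout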
[15] = viability of HCT116 lacking mutant beta-catenin – cell-based, human colon tumor, dose response (AID 1045); format: functional;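 note: HCT116 colon tumor cells with beta catenin knocked out; cells exposed to compound for 60 hours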
Orexin receptor type 2 [16] = target: T5, Orexin receptor type 2 (Homo sapiens, UniProt O43614); test: Counterscreen assay for antagonists of the orexin 1 receptor (OX1R; HCRTR1): Fluorescence-based cell-based dose response assay for antagonists of the orexin 2 receptor (OX2R; HCRTR2), run by assay provider.; format: functional
T5 sequence (O43614 whole entry): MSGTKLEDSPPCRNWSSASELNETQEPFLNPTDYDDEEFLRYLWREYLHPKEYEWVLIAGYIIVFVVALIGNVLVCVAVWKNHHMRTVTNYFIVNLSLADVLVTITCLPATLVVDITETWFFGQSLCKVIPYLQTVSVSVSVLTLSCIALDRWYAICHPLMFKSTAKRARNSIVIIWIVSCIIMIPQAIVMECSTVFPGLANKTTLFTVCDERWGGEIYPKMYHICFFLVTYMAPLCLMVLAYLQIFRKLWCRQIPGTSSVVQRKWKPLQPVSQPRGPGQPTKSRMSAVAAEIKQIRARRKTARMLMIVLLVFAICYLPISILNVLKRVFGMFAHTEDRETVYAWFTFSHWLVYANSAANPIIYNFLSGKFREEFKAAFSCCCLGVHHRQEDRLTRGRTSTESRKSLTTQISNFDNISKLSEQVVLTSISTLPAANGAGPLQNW

Orexin receptor type 2 [17] = target: T5, Orexin receptor type 2; test: Counterscreen assay for antagonists of the orexin 1 receptor (OX1R; HCRTR1): Homogeneous Time Resolved Fluorescence (HTRF)-based cell-based dose response assay for antagonists of the orexin 2 receptor (OX2R; HCRTR2), run by assay provider.; format: functional
[18] = luciferase reporter signal suppression in cells – H4 neuroglioma cells, luminescence, dose response (AID 1990); format: functional, cell-based
[19] = Luminescence Cell-Based Dose Response HTS to Identify Inhibitors of 5'UTR Stem-Loop Driven Prion Protein mRNA Translation in H4 Neuroglioblastoma Cells. [Related pubchem assays: 1827 (Project Summary), 1813 (Primary HTS)]; format: functional
[20] = alpha-synuclein stem-loop luciferase translation blockers – H4 neuroglioma cells, luminescence, confirmation (AID 1988); format: functional, cell-based
[21] = target: T6, E3 ubiquitin-protein ligase XIAP (Homo sapiens, UniProt P98170); test: Counter Screen using XIAP-Bir3 for Chemical Antagonists of Bir1/2 domains of IAP-family anti-apoptotic proteins. [Related pubchem assays (depositor defined):AID1018, AID1449, AID1514, AID1638, AID1749, AID1750, AID488957, AID488963]
[22] = target: T6, E3 ubiquitin-protein ligase XIAP; test: small molecules displacing peptide from XIAP – biochemical, IAP family, fluorescence polarization (AID 1018); format: functional
[23] = target: T7, Microphthalmia-associated transcription factor (Homo sapiens, UniProt O75030); test: reducers of TRPM1 reporter luminescence, concentration series – cell-based, SK-MEL-5, cherry-picked, set 3, MITF inhibitor project, dose response (AID 493073); format: functional;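 note: SK-MEL-5 melanoma cells with luciferase driven by the MITF target TRPM1 promoter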
T7 sequence (O75030 whole entry): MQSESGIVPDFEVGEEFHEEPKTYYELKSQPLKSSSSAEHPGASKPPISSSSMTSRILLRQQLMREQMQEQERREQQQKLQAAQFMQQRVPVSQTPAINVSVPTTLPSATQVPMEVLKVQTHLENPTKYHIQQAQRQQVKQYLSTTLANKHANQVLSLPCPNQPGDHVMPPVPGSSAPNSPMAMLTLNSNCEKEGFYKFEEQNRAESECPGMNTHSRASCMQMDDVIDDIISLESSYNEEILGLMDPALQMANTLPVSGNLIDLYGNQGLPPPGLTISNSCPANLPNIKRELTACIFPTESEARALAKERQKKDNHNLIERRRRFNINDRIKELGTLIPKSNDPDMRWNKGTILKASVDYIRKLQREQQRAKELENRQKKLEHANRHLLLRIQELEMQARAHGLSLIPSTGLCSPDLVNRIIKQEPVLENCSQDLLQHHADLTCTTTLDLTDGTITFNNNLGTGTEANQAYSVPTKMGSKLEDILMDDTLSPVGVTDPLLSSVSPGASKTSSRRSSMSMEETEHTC

[24] = HEK-293T cell viability reduction – luminescence, B-cell screen hits, cytotoxicity control for BCR NF-kB inhibitor project, dose response (AID 489021); format: functional, cell-based;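 note: HEK-293T cells carrying an NF-kB luciferase reporter; cells exposed to compound for about 14 hours before viability readout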
HEK293 = test: HEK293T cell viability loss, resazurin readout – resazurin fluorescence, cytotoxicity control for NF-kB activator project, SAR follow-up (AID 493251); format: functional, cell-based; details: Homo sapiens
Troponin, cardiac muscle = Troponin, cardiac muscle (Homo sapiens, UniProt P19429+P45379+P63316); test: Fluorescence-based biochemical high throughput dose response assay for activators of the calcium sensitivity of cardiac Regulated Thin Filaments (RTF). [Related pubchem assays (depositor defined):AID493008, AID493018, AID504382, AID504383]; format: protein-complex assay
Cysteine protease ATG4B = Cysteine protease ATG4B (Homo sapiens, UniProt Q9Y4P1); format: functional;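 note: Fluorescence-based dose-response confirmation assay measuring inhibition of ATG4B activity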
Phospholipase A2 = Phospholipase A2 (Homo sapiens, UniProt P04054); format: functional;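 note: confirmatory dose-response counterscreen on phospholipase A2, testing hits that came from an ultra-high-throughput screen for ATG4B inhibitors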
[25] = target: Heat shock protein HSP 90-alpha (Homo sapiens, UniProt P07900); format: functional, organism-based
[26] = target: Photoreceptor-specific nuclear receptor (Homo sapiens, UniProt Q9Y5X4); format: functional, cell-based;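 note: CHO-S cells with Gal4-NCOR and VP16-NR2E3 two-hybrid luciferase reporter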

O=[N+]([O-])c1c(Nc2ccc(O)cc2)cc(Cl)c2nonc12
active: IC50 (Large T antigen) 12.3 µM | EC50 [4] 4.2 µM | EC50 [6] 2.66 µM | IC50 (CHO) 1.13 µM | AC50 [7] 1.1 µM | CC50 (Vero) 16.9 µM | EC50 (BJ [8]) 0.501 µM | EC50 (Protein RecA) 0.926 µM | IC50 (Beta Lactamase [9]) 6.38 µM | AC50 (INS1) 5.23 µM | IC50 (Genome polyprotein) 10.4 µM | IC50 [10] 0.969 µM | IC50 (Beta Lactamase [11]) 5.98 µM | IC50 (Fatty acid synthase [12]) 5.26 µM | IC50 (Fatty acid synthase [13]) 4.41 µM
inconclusive: EC50 (BJ [1]) 1.92 µM | EC50 (BJ [2]) 5.3 µM | EC50 (BJ [5]) 3.96 µM
> 112 µM (not active): EC50 [3]

O=C(c1ccco1)N1CCCC(c2nc(-c3ccc(S(=O)(=O)NCc4ccccc4)cc3)no2)C1 (stereo not given)
inactive: IC50 (Orexin receptor type 2 [16]) 39.3 µM
active: EC50 [14] 21.2 µM | EC50 [15] 18.6 µM | IC50 (Orexin receptor type 2 [17]) 5.51 µM

CCOc1ccc(-c2noc(CCC(=O)O)n2)cc1
> 100 µM (not active): IC50 [22]
inactive: IC50 [21] > 100 µM | IC50 [24] > 80 µM | IC50 (HEK293) > 80 µM
active: EC50 [18] 6.28 µM | EC50 [19] 15 µM | EC50 [20] 7.97 µM | AC50 [23] 2.61 µM

Fc1ccc(CN=C(S)NCc2ccc(F)cc2)cc1
active: IC50 (Cysteine protease ATG4B) 12.3 µM | IC50 (Phospholipase A2) 9.33 µM
inactive: EC50 (Troponin, cardiac muscle) > 71.5 µM

Cc1sc(NC(=O)c2ccccc2)c(C(=O)c2ccccc2)c1C
active: IC50 (Cysteine protease ATG4B) 15.3 µM | IC50 (Phospholipase A2) 9.18 µM

O=c1c(Br)ccc(Br)cc1Br
active: IC50 (CHO) 0.558 µM | AC50 [25] 0.438 µM | IC50 (Beta Lactamase [9]) 6.14 µM | IC50 [26] 3.72 µM
